Measured values published in patent US7858647B2, “N-[1,3,4]-thiadiazol-2-yl-benzene sulfonamides, pharmaceutical compositions thereof and methods for their therapeutic use” (Sanofi-Aventis, priority 2005, dated 2010).
Read-outs that look alike come from different tables or passages of the source.

Key:
[1] = two weeks clinical trials in healthy volunteers; cited from earlier work
[2] = rhesus monkeys; cited from earlier work
[3] = cynomolgus monkeys; cited from earlier work
human PPARdelta = biological target: T1, human PPARdelta (Homo sapiens, UniProt Q03181); test: Cellular PPARdelta assay (luciferase reporter, stably transfected HEK cell line); assay type: cell-based; conditions: GR-GAL4-humanPPARdelta-LBD
T1 construct: amino acids S139-Y441; expressed in transfected cells
T1 sequence (Q03181 139-441): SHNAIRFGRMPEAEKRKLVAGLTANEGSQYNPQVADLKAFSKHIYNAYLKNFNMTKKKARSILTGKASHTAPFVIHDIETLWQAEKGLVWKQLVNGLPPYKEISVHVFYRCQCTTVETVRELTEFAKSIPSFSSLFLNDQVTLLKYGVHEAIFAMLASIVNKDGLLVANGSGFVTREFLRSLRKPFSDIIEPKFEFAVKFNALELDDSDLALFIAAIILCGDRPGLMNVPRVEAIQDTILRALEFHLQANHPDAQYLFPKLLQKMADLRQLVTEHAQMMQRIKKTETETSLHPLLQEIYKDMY
Description: The activity of PPARalpha agonists is determined in a 3-day assay which is described below:
The PPARalpha reporter cell line is cultivated to 80% confluence in DMEM (#41965-039, Invitrogen) which is mixed with the following additions: 10% cs-FCS (fetal calf serum; #SH-30068.03, Hyclone), 0.5 mg/ml zeocin (#R250-01, Invitrogen), 0.5 mg/ml G418 (#10131-027, Invitrogen), 1% penicillin-streptomycin solution (#15140-122, Invitrogen) and 2 mM L-glutamine (#25030-024, Invitrogen). The cultivation takes place in standard cell culture bottles (#353112, Becton Dickinson) in a cell culture incubator at 37° C. in the presence of 5% CO2. The 80%-confluent cells are washed once with 15 ml of PBS (#14190-094, Invitrogen), treated with 3 ml of trypsin solution (#25300-054, Invitrogen) at 37° C. for 2 min, taken up in 5 ml of the DMEM described and counted in a cell counter. After dilution to 500.000 cells/ml, 35,000 cells are seeded in each well of a 96 well microtiter plate with a clear plastic base (#3610, Corning Costar). The plates are incubated in the cell culture incubator at 37° C. and 5% CO2 for 24 h.
PPARalpha Agonists to be Tested are Dissolved in DMSO in a Concentration of 10 mM. This stock solution is diluted in DMEM (#41965-039, Invitrogen) which is mixed with 5% cs-FCS (#SH-30068.03, Hyclone), 2 mM L-glutamine (#25030-024, Invitrogen) and the previously described antibiotics (zeocin, G418, penicillin and streptomycin). Test substances are tested in 11 different concentrations in the range from 10 μM to 100 pM.
The medium of the PPARalpha reporter cell line seeded on day 1 is completely removed by aspiration, and the test substances diluted in medium are immediately added to the cells. The dilution and addition of the substances is carried out by a robot (Beckman FX). The final volume of the test substances diluted in medium is 100 μl per well of a 96 well microtiter plate. The DMSO concentration in the assay is less than 0.1% v/v in order to avoid cytotoxic effects of the solvent.
The assay plates are incubated in an incubator at 37° C. and 5% CO2 for 24 h.
The PPARalpha reporter cells treated with the test substances are removed from the incubator, and the medium is aspirated off. The cells are lyzed by pipetting 50 μl of Bright Glo reagent (from Promega) into each well of a 96 well microtiter plate. After incubation at room temperature in the dark for 10 minutes, the microtiter plates are measured in the luminometer (Trilux from Wallac). The measuring time for each well of a microtiter plate is 1 sec.
The raw data from the luminometer are transferred into a Microsoft Excel file. Dose-effect plots and EC50 values of PPAR agonists are calculated using the XL.Fit program as specified by the manufacturer (IDBS).
The potency of substances which bind to human PPARdelta and activate it in an agonistic manner is analyzed using a stably transfected HEK cell line (HEK=human embryo kidney) which is referred to here as PPARdelta reporter cell line. In analogy to the assay described for PPARalpha, the PPARdelta reporter cell line also contains two genetic elements, a luciferase reporter element (pdeltaM-GAL4-Luc-Zeo) and a PPARdelta fusion protein (GR-GAL4-humanPPARdelta-LBD) which mediates expression of the luciferase reporter element depending on a PPARdelta ligand. The stably and constitutively expressed fusion protein GR-GAL4-humanPPARdelta-LBD binds in the cell nucleus of the PPARdelta reporter cell line via the GAL4 protein portion to the GAL4 DNA binding motifs 5′-upstream of the luciferase reporter element which is stably integrated in the genome of the cell line. There is only little expression of the luciferase reporter gene in the absence of a PPARdelta ligand if fatty acid-depleted fetal calf serum (cs-FCS) is used in the assay. PPARdelta ligands bind and activate the PPARdelta fusion protein and thereby stimulate expression of the luciferase reporter gene. […]

[4] = diabetic animal model; cited from earlier work
[5] = obese, insulin resistant rhesus monkeys, cited from earlier work

For CCCc1c(OCCCSc2nnc(SCC(=O)O)s2)ccc(C(C)=O)c1O [YM-16638], the plasma lipids [1] is given as “acts in a similar manner”, the plasma lipids [2] is given as “significantly lowers” and the plasma lipids [3] is given as “significantly lowers”.
With CCOc1cc(C(F)(F)F)ccc1C(=O)NCCc1ccc(S(=O)(=O)Nc2nnc(C(C)C)s2)cc1 [Example 16, 2-Ethoxy-N-{2-[4-(5-isopropyl-[1,3,4]thiadiazol-2-ylsulfamoyl)-phenyl]-ethyl}-4-trifluoromethyl-benzamide] the EC50 (human PPARdelta) was 46 nM.
In the case of CCCc1c(OCCCOc2ccc(OCC(=O)O)cc2)ccc(C(C)=O)c1O [Example L-165041], the plasma cholesterol [4] is given as “raises”.
In the case of Cc1cc(SCc2sc(-c3ccc(C(F)(F)F)cc3)nc2C)ccc1OCC(=O)O [GW501516], the insulin levels ([5]; plasma) is listed as “decreases”, the triglycerides ([5]; plasma) is listed as “decreases” and the HDL-cholesterol [5] is listed as “raises”. For the same molecule, the “plasma LDL-cholesterol” value [5] was “decreases”.
